Values quoted from earlier work as cited in patent publication US20110190221A1, “MODULATION AND REPLETION/ENHANCEMENT OF THE COMPLEMENT SYSTEM FOR TREATMENT OF TRAUMA” (APELLIS AG, priority 2008, published 2011).

Tested on: complement activation
Conditions: relative to compstatin amidated at the C-terminus; based on published data (WO2004/026328, Mallik 2005, Katragadda 2006)

Sequence: ICVVQDWGHHRCT [Ac-compstatin]
- Activity over compstatin: 3 × more
